Data from patent US8207357B2, “Rotaxane compound and antitumor agent” (Wan Station Co., Ltd., priority 2008, dated 2012).

How the values were obtained:
[1] = system: mouse colon tumor cell-derived cell line Colon-26; assay: Antitumor activity, viable cell count (Tetra Color ONE, absorbance 450 nm) in Colon-26; format: cell-based; conditions: Colon-26, 1.25 μM, compared with Control, FIG. 1
Experimental: (§1) As tumor cells, mouse colon tumor cell-derived cell line Colon-26, human glioblastoma-derived cell line T98G, and human malignant melanoma-derived cell line G361 were used. The tumor cells of each cell line were cultured in RPMI 1640 containing 10% FBS and 0.5% penicillin-streptomycin, as the base medium, in the presence of 5% CO2, at 37° C., under humidity conditions. The tumor cells (5.0×10^4) of each cell line having been cultured to a sufficiently confluent state were seeded in a 1.5 mL tube together with the medium. Each of the rotaxane compounds was dissolved in DMSO as a vehicle (solvent) and was added to the tube in a predetermined concentration so that the total amount is 1000 μL. Then, 100 μL of this was dispensed to each well of a 96-well microplate and was incubated in a CO2 incubator for 24 hours. Subsequently, 10 μL of a viable-cell-counting reagent (Tetra Color ONE, a product of Seikagaku Corporation) was added to each well of the 96-well microplate, and a reaction was performed in the CO2 incubator for 2 hours. The ultraviolet absorbance at 450 nm (control wavelength: 620 nm) was measured […] the reaction with a microplate reader. Note that the higher absorbance means the lager number of viable cells.
The antitumor activities of TRO-A0014 and TRO-A0015 were verified using Colon-26 as tumor cells as in the method of (5-1) described above. […]

[2] = system: human malignant melanoma-derived cell line G361; assay: Antitumor activity, viable cell count (Tetra Color ONE, absorbance 450 nm) in G361; format: cell-based; conditions: G361, at every rotaxane concentrations, FIG. 2
Experimental: as §1
The antitumor activity of TRO-A0010 was verified using T98G and G361 as tumor cells as in the above (5-1).

Substance	cell growth-inhibiting effect at a concentration of 1.25 μM [1]	cell growth-inhibiting effect compared with TRO-A0001 [2]
[2][(3,5-dimethylphenylcarboxyethyl)(3,5-dimethylphenylcarboxypropyl) ammonium-rotaxa-[2,5,8,11,13,16,19,22-octaoxa-1,12(1,2)-dibenzenacyclodocosaphane]] trifluoromethanesulfonate [TRO-A0014]	obviously observed	
[2][bis(3,5-dimethylphenylcarboxypentyl)ammonium-rotaxa-[2,5,8,11,13,16,19,22-octaoxa-1,12(1,2)-dibenzenacyclodocosaphane]]trifluoromethanesulfonate [TRO-A0010]		higher than that of TRO-A0001
